Reference: ChEMBL document CHEMBL4020724, “Selective HDAC inhibitors with potent oral activity against leukemia and colorectal cancer: Design, structure-activity relationship and anti-tumor activity study” (Eur J Med Chem, 2017)
pIC50: −log10 of the molar value. Activity calls are given as the source filed them. The rule behind the calls is not given here.

Tests used:
Histone deacetylase 1 = Histone deacetylase 1 (Homo sapiens, UniProt Q13547); test: Inhibition of HDAC1 (unknown origin) using Boc-Lys (acetyl)-AMC as substrate incubated for 10 mins followed by substrate addition measured after 30 mins by fluorescence assay
Histone deacetylase 3 = Histone deacetylase 3 (Homo sapiens, UniProt O15379); test: Inhibition of HDAC3 (unknown origin) using Boc-Lys (acetyl)-AMC as substrate incubated for 10 mins followed by substrate addition measured after 30 mins by fluorescence assay
Histone deacetylase 2 = Histone deacetylase 2 (Homo sapiens, UniProt Q92769); test: Inhibition of HDAC2 (unknown origin) using Boc-Lys (acetyl)-AMC as substrate incubated for 10 mins followed by substrate addition measured after 30 mins by fluorescence assay
HL-60 [1] = test: cells; settings: Homo sapiens, HL-60, 48 h
Description: Antiproliferative activity against human HL60 cells after 48 hrs by MTT assay

[2] = Inhibition of class 1 HDAC in human HL60 cells using Boc-Ac-Lys-AMC as substrate incubated for 3 hrs followed by substrate addition measured after 3 hrs by fluorescence assay; type: cell-based; settings: HL-60, 3 h
HCT-116 [3] = test: cells; settings: Homo sapiens, HCT-116, 48 h
U-937 [4] = test: cells; settings: Homo sapiens, U-937, 48 h
Description: Antiproliferative activity against human U937 cells after 48 hrs by MTT assay

U-266 = test: Antiproliferative activity against human U266 cells after 48 hrs by MTT assay; type: functional, cell-based; settings: U-266, 48 h
HEL = test: Antiproliferative activity against HEL cells after 48 hrs by MTT assay; type: functional, cell-based; settings: Homo sapiens
cells = settings: Homo sapiens, ES-2, 48 h
Description: Antiproliferative activity against human ES2 cells after 48 hrs by MTT assay

[5] = target: T1, Protein deacetylase HDAC6 (Homo sapiens, UniProt Q9UBN7); test: Inhibition of HDAC6 (unknown origin) using Boc-Lys (acetyl)-AMC as substrate incubated for 10 mins followed by substrate addition measured after 30 mins by fluorescence assay
T1 sequence (Q9UBN7 whole entry): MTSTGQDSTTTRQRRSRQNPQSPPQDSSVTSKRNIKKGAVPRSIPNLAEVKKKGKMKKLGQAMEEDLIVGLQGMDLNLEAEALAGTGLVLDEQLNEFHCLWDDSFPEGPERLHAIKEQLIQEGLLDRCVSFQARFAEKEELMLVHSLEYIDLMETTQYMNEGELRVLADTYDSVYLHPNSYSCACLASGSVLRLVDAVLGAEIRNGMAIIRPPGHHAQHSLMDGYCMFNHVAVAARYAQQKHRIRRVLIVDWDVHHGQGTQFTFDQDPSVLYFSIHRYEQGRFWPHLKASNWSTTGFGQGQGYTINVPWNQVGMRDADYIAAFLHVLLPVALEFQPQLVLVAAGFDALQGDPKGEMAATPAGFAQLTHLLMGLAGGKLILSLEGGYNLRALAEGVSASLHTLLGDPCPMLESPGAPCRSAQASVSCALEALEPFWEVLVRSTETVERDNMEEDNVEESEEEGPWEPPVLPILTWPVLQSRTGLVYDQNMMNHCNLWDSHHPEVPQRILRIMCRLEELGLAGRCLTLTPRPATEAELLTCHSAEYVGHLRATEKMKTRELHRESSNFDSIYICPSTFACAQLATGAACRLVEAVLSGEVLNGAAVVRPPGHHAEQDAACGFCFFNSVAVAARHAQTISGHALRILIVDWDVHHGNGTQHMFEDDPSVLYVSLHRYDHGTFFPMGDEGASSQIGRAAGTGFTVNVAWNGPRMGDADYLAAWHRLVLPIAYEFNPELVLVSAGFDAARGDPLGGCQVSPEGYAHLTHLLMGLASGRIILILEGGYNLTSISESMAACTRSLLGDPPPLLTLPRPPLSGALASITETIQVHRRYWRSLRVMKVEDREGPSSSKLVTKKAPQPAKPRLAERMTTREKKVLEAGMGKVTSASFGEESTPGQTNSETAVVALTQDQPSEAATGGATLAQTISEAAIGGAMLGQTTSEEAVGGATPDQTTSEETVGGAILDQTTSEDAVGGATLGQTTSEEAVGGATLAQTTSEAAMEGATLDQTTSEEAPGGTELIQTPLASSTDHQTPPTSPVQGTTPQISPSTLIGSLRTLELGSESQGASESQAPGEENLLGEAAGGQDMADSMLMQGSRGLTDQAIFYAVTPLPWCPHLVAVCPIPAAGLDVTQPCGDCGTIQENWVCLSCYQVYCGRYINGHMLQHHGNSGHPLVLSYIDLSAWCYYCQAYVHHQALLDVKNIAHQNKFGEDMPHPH

Histone deacetylase 4 = Histone deacetylase 4 (Homo sapiens, UniProt P56524); test: Inhibition of HDAC4 (unknown origin) using Boc-Lys (triflouroacetyl)-AMC as substrate incubated for 10 mins followed by substrate addition measured after 30 mins by fluorescence assay
Histone deacetylase 8 = target: T2, Histone deacetylase 8 (Homo sapiens, UniProt Q9BY41); test: Inhibition of HDAC8 (unknown origin) using Boc-Lys (acetyl)-AMC as substrate incubated for 10 mins followed by substrate addition measured after 30 mins by fluorescence assay
T2 sequence (Q9BY41 whole entry): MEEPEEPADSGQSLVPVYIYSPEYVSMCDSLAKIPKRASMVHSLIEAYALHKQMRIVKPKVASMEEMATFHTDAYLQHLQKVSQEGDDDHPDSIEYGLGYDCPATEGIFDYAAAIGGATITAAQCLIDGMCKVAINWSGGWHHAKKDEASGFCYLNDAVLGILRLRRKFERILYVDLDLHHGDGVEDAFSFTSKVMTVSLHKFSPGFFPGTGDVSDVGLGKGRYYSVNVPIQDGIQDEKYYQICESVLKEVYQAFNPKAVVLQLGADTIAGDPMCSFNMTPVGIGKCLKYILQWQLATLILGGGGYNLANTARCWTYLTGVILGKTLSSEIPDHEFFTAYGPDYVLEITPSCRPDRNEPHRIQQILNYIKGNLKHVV

HL-60 [6] = test: Induction of apoptosis in human HL60 cells assessed as decrease in procaspase-3 level at 1 to 5 uM after 48 hrs by Western blot analysis; type: functional, cell-based
HL-60 [7] = test: Induction of apoptosis in human HL60 cells assessed as increase in cleaved caspase-3 level at 1 to 5 uM after 48 hrs by Western blot analysis; type: functional, cell-based
[8] = target: T3, Histone deacetylase (HDAC1 and HDAC2) (Homo sapiens) (UniProt Q13547+Q92769); test: Inhibition of HDAC1/2 in human HL60 cells assessed as increase in acetylated histone H3 level at 1 to 5 uM after 48 hrs by Western blot analysis; type: cell-based
HL-60 [9] = test: Induction of apoptosis in human HL60 cells assessed as increase in cleaved PARP level at 1 to 5 uM after 48 hrs by Western blot analysis; type: functional, cell-based
[10] = target: T3, Histone deacetylase (HDAC1 and HDAC2) (Homo sapiens); test: Inhibition of HDAC1/2 in human HL60 cells assessed as increase in acetylated histone H4 level at 1 to 5 uM after 48 hrs by Western blot analysis; type: cell-based
U-937 [11] = test: Antitumor activity against human U937 cells xenografted in BALB/c nude mouse assessed as tumor growth inhibition at 100 mg/kg/day administered via oral gavage for 13 days measured every 3 days; type: functional; settings: U-937, po, read-out: TGI
HCT-116 [12] = test: Antitumor activity against human HCT116 cells xenografted in BALB/c nude mouse assessed as tumor growth inhibition at 100 mg/kg/day administered via oral gavage for 16 days measured every 3 days; type: functional; settings: HCT-116, po, read-out: TGI
HCT-116 [13] = test: Antitumor activity against human HCT116 cells xenografted in BALB/c nude mouse assessed as relative tumor increment ratio at 100 mg/kg/day administered via oral gavage for 16 days measured every 3 days; type: functional
Mus musculus [14] = test: Toxicity in BALB/c nude mouse xenografted with human U937 cells assessed as body weight at 100 mg/kg/day administered via oral gavage for 13 days (reference value: 25.39 +/- 1.18 g); type: organism-based; settings: in vivo, 312 h
Mus musculus [15] = test: Toxicity in BALB/c nude mouse xenografted with human HCT116 cells assessed as body weight at 100 mg/kg/day administered via oral gavage for 16 days (reference value: 19.91 +/- 1.26 g); type: organism-based; settings: in vivo, 384 h

Sequence of Histone deacetylase 1 (Q13547 whole entry): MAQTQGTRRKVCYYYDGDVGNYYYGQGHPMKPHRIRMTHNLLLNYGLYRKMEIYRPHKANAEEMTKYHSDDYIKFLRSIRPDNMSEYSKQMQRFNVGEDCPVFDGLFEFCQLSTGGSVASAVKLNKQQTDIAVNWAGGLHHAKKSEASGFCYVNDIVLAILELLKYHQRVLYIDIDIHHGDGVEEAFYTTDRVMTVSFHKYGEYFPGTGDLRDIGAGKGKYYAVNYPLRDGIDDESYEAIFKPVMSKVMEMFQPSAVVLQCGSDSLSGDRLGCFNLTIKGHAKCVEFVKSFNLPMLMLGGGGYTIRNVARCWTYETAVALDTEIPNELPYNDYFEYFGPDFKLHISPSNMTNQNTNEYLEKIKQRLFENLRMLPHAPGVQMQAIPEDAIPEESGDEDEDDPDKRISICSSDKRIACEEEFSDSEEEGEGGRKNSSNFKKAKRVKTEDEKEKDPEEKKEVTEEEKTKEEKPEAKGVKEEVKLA
Sequence of Histone deacetylase 2 (Q92769 whole entry): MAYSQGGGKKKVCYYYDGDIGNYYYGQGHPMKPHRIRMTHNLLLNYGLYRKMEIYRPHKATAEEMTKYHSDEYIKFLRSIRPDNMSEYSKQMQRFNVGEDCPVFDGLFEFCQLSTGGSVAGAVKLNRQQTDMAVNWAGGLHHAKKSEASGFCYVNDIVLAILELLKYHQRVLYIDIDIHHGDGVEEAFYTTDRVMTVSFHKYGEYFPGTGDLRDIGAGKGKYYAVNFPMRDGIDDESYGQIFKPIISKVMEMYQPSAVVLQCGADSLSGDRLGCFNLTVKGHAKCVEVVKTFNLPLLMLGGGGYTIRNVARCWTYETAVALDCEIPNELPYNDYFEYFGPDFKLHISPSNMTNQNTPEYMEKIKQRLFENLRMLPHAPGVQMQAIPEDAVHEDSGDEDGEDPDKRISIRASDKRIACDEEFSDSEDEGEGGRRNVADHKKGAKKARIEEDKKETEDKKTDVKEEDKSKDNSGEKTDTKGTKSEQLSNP
Sequence of Histone deacetylase 3 (O15379 whole entry): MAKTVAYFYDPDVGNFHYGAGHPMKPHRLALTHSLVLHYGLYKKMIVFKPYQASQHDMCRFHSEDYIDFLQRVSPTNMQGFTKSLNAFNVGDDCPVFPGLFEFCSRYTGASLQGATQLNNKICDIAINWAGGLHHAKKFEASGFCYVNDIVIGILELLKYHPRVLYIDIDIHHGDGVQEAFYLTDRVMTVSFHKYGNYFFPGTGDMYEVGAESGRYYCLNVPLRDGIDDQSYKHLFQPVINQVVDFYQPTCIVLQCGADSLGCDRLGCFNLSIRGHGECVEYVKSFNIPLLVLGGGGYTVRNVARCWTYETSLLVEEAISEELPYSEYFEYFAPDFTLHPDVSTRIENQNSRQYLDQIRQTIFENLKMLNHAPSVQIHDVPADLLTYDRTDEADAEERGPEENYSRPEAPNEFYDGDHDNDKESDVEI
T3 sequence (Q13547 whole entry, looked up): as the sequence (Q13547 whole entry) above
T3 sequence (Q92769 whole entry, looked up): as the sequence (Q92769 whole entry) above
Sequence of Histone deacetylase 4 (P56524 whole entry): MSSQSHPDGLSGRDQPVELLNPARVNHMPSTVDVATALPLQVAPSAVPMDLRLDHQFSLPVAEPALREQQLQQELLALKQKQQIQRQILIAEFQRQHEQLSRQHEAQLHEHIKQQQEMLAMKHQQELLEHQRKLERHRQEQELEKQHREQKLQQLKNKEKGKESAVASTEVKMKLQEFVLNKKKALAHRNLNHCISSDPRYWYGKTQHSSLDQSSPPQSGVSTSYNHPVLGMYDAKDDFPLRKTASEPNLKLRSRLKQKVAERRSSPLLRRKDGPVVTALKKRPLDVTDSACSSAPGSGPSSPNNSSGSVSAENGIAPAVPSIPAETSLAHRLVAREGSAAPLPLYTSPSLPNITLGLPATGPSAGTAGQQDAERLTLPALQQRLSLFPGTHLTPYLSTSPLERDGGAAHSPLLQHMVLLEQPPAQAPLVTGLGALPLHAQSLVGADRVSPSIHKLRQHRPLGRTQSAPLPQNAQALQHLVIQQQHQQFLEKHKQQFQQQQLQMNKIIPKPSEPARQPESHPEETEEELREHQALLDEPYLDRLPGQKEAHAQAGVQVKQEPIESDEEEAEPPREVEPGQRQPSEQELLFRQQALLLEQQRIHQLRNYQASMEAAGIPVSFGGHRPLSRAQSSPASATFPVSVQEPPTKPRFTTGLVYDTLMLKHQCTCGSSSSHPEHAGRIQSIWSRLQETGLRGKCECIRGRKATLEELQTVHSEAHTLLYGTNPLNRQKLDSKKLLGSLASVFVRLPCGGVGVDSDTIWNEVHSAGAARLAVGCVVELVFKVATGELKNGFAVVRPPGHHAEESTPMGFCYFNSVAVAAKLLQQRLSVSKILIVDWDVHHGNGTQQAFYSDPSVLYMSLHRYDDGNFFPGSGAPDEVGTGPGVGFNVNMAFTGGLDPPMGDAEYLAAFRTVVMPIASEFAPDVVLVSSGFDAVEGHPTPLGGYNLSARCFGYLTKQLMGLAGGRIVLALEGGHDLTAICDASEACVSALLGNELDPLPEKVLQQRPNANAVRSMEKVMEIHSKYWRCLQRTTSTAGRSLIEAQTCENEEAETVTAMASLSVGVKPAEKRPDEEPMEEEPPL

Row | Structure (SMILES) | pIC50 (Histone deacetylase 1) | pIC50 (Histone deacetylase 3) | pIC50 (Histone deacetylase 2) | other results
1 | COc1ccc(C(=O)N[C@H](COc2ccc(/C=C/C(=O)Nc3ccccc3N)cc2)Cc2c[nH]c3ccccc23)cc1 | 6.55 | 6.58 | 6.66 | 
2 | COc1ccc(C(=O)N[C@H](COc2ccc(C(=O)Nc3ccccc3N)cc2)Cc2c[nH]c3ccccc23)cc1 | 7.83 | 7.05 | 6.95 | 
3 | COc1ccc(C(=O)N[C@H](COc2ccc(CC(=O)Nc3ccccc3N)cc2)Cc2c[nH]c3ccccc23)cc1 | < 4.70 | < 4.70 | < 4.70 | pIC50 (HL-60 [1]): < 4.70; pIC50 [2]: < 5.00
4 | COc1ccc(C(=O)N[C@H](CNCc2ccc(C(=O)Nc3ccccc3N)cc2)Cc2c[nH]c3ccccc23)cc1 | 7.52 | 6.65 | 7.67 | 
5 | COc1ccc(C(=O)N[C@@H](Cc2c[nH]c3ccccc23)C(=O)NCc2ccc(C(=O)Nc3cc(-c4cccs4)ccc3N)cc2)cc1 | 7.23 | 5.10 | 6.49 | pIC50 (HCT-116 [3]): < 4.70; pIC50 (U-937 [4]): < 4.70; pIC50 (U-266): < 4.70; pIC50 (HEL): < 4.70; pIC50 (cells): < 4.70
6 | COc1ccc(C(=O)N[C@@H](Cc2c[nH]c3ccccc23)C(=O)NCCCCCC(=O)Nc2ccc(F)cc2N)cc1 | 6.29 | 6.96 | 6.04 | pIC50 [5]: < 4.00; pIC50 (Histone deacetylase 4): < 4.00; pIC50 (Histone deacetylase 8): < 4.00
7 | COc1ccc(C(=O)N[C@@H](Cc2c[nH]c3ccccc23)C(=O)Nc2ccc(C(=O)Nc3ccccc3N)cc2)cc1 | 7.30 | 6.64 | 6.36 | pIC50 (HL-60 [1]): 5.67; pIC50 [2]: 6.07
8 | COc1ccc(C(=O)N[C@@H](Cc2c[nH]c3ccccc23)C(=O)Nc2ccc(C(=O)Nc3ccc(F)cc3N)cc2)cc1 | 7.04 | 6.78 | 6.92 | 
9 | COc1ccc(C(=O)N[C@@H](Cc2c[nH]c3ccccc23)C(=O)NCc2ccc(C(=O)Nc3ccc(F)cc3N)cc2)cc1 | 6.77 | 6.61 | 6.75 | 
10 | COc1ccc(C(=O)N[C@@H](Cc2c[nH]c3ccccc23)C(=O)NCc2ccc(C(=O)Nc3ccccc3N)cc2)cc1 | 7.69 | 6.86 | 6.80 | Activity (HL-60 [6]): Active; Activity (HL-60 [7]): Active; inhibition [8]: Active; Activity (HL-60 [9]): Active; inhibition [10]: Active; inhibition in vivo at 100 mg/kg/day (U-937 [11]): 51%; inhibition in vivo at 100 mg/kg/day (HCT-116 [12]): 49%; T/C (HCT-116 [13]): 59%; Activity (Mus musculus [14]): 25.04 g; pIC50 (cells): < 4.70; Activity (Mus musculus [15]): 21.59 g
11 | COc1ccc(C(=O)N[C@@H](Cc2c[nH]c3ccccc23)C(=O)NCCCCCC(=O)Nc2cc(-c3cccs3)ccc2N)cc1 | 7.32 | 5.45 | 6.47 | pIC50 (HCT-116 [3]): < 4.70; pIC50 (U-937 [4]): < 4.70; pIC50 [5]: < 4.00; pIC50 (U-266): < 4.70; pIC50 (Histone deacetylase 4): < 4.00; pIC50 (Histone deacetylase 8): < 4.00; pIC50 (cells): < 4.70
